Test results from ChEMBL document CHEMBL3044763, “Inhibitory Activities of Rhodanine Derivatives on Plant Growth” (Biosci Biotechnol Biochem, 1996).

Assays:
[1] = test system: Brassica rapa subsp. oleifera; experiment: Growth inhibition of Brassica rapa subsp. oleifera assessed as chlorophyll b level at 1 x 10^-4 M after 7 days; assay type: functional; set-up: scale not given: the % may be the effect or the level left
[2] = test system: Brassica rapa subsp. oleifera; experiment: Growth inhibition of Brassica rapa subsp. oleifera assessed as chlorophyll a level at 3 x 10^-5 M after 7 days; assay type: functional; set-up: scale not given: the % may be the effect or the level left
[3] = test system: Brassica rapa subsp. oleifera; experiment: Growth inhibition of Brassica rapa subsp. oleifera assessed as chlorophyll a level at 5 x 10^-5 M after 7 days; assay type: functional; set-up: scale not given: the % may be the effect or the level left
[4] = Toxicity in Mus musculus ddY (mouse) assessed as mortality at 8 mg/kg, ip after 7 days; assay type: organism-based; set-up: dose 8 mg/kg, route intraperitoneal; settings: in vivo
[5] = test system: Allium tuberosum; experiment: Growth inhibition of Allium tuberosum assessed as root growth at 1 x 10^-4 M after 10 days; assay type: functional
[6] = test system: Allium tuberosum; experiment: Growth inhibition of Allium tuberosum assessed as root growth at 3 x 10^-4 M after 10 days; assay type: functional
[7] = test system: Echinochloa esculenta; experiment: Growth inhibition of Echinochloa esculenta assessed as root growth at 3 x 10^-4 M after 7 days; assay type: functional
[8] = test system: Brassica rapa subsp. oleifera; experiment: Growth inhibition of Brassica rapa subsp. oleifera assessed as root growth at 3 x 10^-5 M after 7 days; assay type: functional
[9] = test system: Lactuca sativa; experiment: Growth inhibition of Lactuca sativa (lettuce) assessed as root growth at 3 x 10^-4 M after 7 days; assay type: functional
[10] = test system: Sesamum indicum; experiment: Growth inhibition of Sesamum indicum (sesame) assessed as root growth at 3 x 10^-5 M after 7 days; assay type: functional
[11] = test system: Sesamum indicum; experiment: Growth inhibition of Sesamum indicum (sesame) assessed as root growth at 1 x 10^-4 M after 7 days; assay type: functional
[12] = Toxicity in Mus musculus ddY (mouse) assessed as mortality at 3 mg/kg, ip after 3 days; assay type: organism-based; set-up: dose 3 mg/kg, route intraperitoneal; settings: in vivo
[13] = Toxicity in Mus musculus ddY (mouse) assessed as mortality at 8 mg/kg, ip after 3 days; assay type: organism-based; set-up: dose 8 mg/kg, route intraperitoneal; settings: in vivo
[14] = Toxicity in Mus musculus ddY (mouse) assessed as mortality at 5 mg/kg, ip after 2 days; assay type: organism-based; set-up: dose 5 mg/kg, route intraperitoneal; settings: in vivo
[15] = Toxicity in Mus musculus ddY (mouse) assessed as mortality at 4 mg/kg, ip after 2 days; assay type: organism-based; set-up: dose 4 mg/kg, route intraperitoneal; settings: in vivo
[16] = Toxicity in Mus musculus ddY (mouse) assessed as mortality at 8 mg/kg, ip after 2 days; assay type: organism-based; set-up: dose 8 mg/kg, route intraperitoneal; settings: in vivo
[17] = Toxicity in Mus musculus ddY (mouse) assessed as mortality at 8 mg/kg, ip after 1 day; assay type: organism-based; set-up: dose 8 mg/kg, route intraperitoneal; settings: in vivo
[18] = test system: Brassica rapa subsp. oleifera; experiment: Growth inhibition of Brassica rapa subsp. oleifera assessed as chlorophyll a level at 3 x 10^-4 M after 7 days; assay type: functional; set-up: scale not given: the % may be the effect or the level left
[19] = Toxicity in Mus musculus ddY (mouse) assessed as mortality at 3 mg/kg, ip after 4 days; assay type: organism-based; set-up: dose 3 mg/kg, route intraperitoneal; settings: in vivo
[20] = Toxicity in Mus musculus ddY (mouse) assessed as mortality at 6 mg/kg, ip after 4 days; assay type: organism-based; set-up: dose 6 mg/kg, route intraperitoneal; settings: in vivo
[21] = Toxicity in Mus musculus ddY (mouse) assessed as mortality at 4 mg/kg, ip after 6 days; assay type: organism-based; set-up: dose 4 mg/kg, route intraperitoneal; settings: in vivo
[22] = Toxicity in Mus musculus ddY (mouse) assessed as mortality at 3 mg/kg, ip after 6 days; assay type: organism-based; set-up: dose 3 mg/kg, route intraperitoneal; settings: in vivo
[23] = Toxicity in Mus musculus ddY (mouse) assessed as mortality at 8 mg/kg, ip after 6 days; assay type: organism-based; set-up: dose 8 mg/kg, route intraperitoneal; settings: in vivo
[24] = Toxicity in Mus musculus ddY (mouse) assessed as mortality at 3 mg/kg, ip after 5 days; assay type: organism-based; set-up: dose 3 mg/kg, route intraperitoneal; settings: in vivo
[25] = Toxicity in Mus musculus ddY (mouse) assessed as mortality at 6 mg/kg, ip after 5 days; assay type: organism-based; set-up: dose 6 mg/kg, route intraperitoneal; settings: in vivo
[26] = Toxicity in Mus musculus ddY (mouse) assessed as mortality at 8 mg/kg, ip after 5 days; assay type: organism-based; set-up: dose 8 mg/kg, route intraperitoneal; settings: in vivo
[27] = Toxicity in Mus musculus ddY (mouse) assessed as mortality at 7 mg/kg, ip after 4 days; assay type: organism-based; set-up: dose 7 mg/kg, route intraperitoneal; settings: in vivo

NN1C(=O)CSC1=S [AMINORHODANINE]
Activity [1]: 3.82%
Activity [2]: 11.07%
Activity [3]: 9.22%
mortality at 168 h [4]: 100%
Activity [5]: 5.1 mm
Activity [6]: 1.4 mm
Activity [7]: 3.1 mm
Root length [8]: 30.8 mm
Activity [9]: 0 mm
Activity [10]: 9.5 mm
Activity [11]: 3.2 mm
mortality at 72 h [12]: 0%
mortality at 72 h [13]: 100%
mortality at 48 h [14]: 60%
mortality at 48 h [15]: 20%
mortality at 48 h [16]: 100%
mortality at 24 h [17]: 100%
Activity [18]: 7.76%
mortality at 96 h [19]: 0%
mortality at 96 h [20]: 60%
mortality at 144 h [21]: 20%
mortality at 144 h [22]: 0%
mortality at 144 h [23]: 100%
mortality at 120 h [24]: 0%
mortality at 120 h [25]: 60%
mortality at 120 h [26]: 100%
mortality at 96 h [27]: 80%
